In patent publication US11884647B2, “Compounds and methods for targeting pathogenic blood vessels” (THE REGENTS OF THE UNIVERSITY OF CALIFORNIA, priority 2019, dated 2024):

Each compound was assayed on tumor endothelial cells (LL/2 lung cancer tumor) (assay: Lung LL2 ex vivo model of tumor angiogenesis). Conditions: Lung LL2 ex vivo; Conc. 20 μm; drug treatment two days.
Format: cell-based, mouse
Procedure, shortened: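 Mouse LL2 tumor fragments (~0.5×0.5×0.3 mm) embedded in Matrigel and grown in endothelial growth medium at 37° C until endothelial outgrowth (about 4 days) before drug treatment. About 48 h after drug addition, stained 10 min with fluorescein diacetate/propidium iodide; live (green) and dead (red) cells imaged at 2× with fixed channel settings.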
`CCCCCCCOc1ccc(S(=O)(=O)c2cnc3ccc(SC)cc3c2N2CCN(C3CCN(C)CC3)CC2)cc1` [compound 273, 3-((4-(heptyloxy)phenyl)sulfonyl)-4-(4-(1-methylpiperidin-4-yl)piperazin-1-yl)-6-(methylthio)quinoline] gave a Cell death of 60%.
`CCc1ccc(S(=O)(=O)c2cnc3ccc(OC(F)(F)F)cc3c2-n2cnnn2)cc1` [compound 125, 3-((4-ethylphenyl)sulfonyl)-4-(1H-tetrazol-1-yl)-6-(trifluoromethoxy)quinoline] gave a Cell death of 10%.

Same assay, conditions: Lung LL2 ex vivo; Conc. 40 μm; drug treatment two days
With `CCCCOc1ccc(S(=O)(=O)c2cnc3ccc(SC)cc3c2N2CCCN(C3CCSCC3)CC2)cc1` [compound 358, 3-((4-butoxyphenyl)sulfonyl)-6-(methylthio)-4-(4-(tetrahydro-2H-thiopyran-4-yl)-1,4-diazepan-1-yl)quinoline] the Cell death was 0%.
Work on `CCCCOc1ccc(S(=O)(=O)c2cnc3ccc(C(=O)NCCO)cc3c2N2CCCN(C)CC2)cc1` [compound 200, 3-((4-butoxyphenyl)sulfonyl)-N-(2-hydroxyethyl)-4-(4-methyl-1,4-diazepan-1-yl)quinoline-6-carboxamide] yielded a Cell death of 30%.
Work on `CNC(=O)c1ccc2ncc(S(=O)(=O)c3ccc(OC)cc3)c(N3CCC(N4CCCCC4)CC3)c2c1` [compound 143, 4-([1,4′-bipiperidin]-1′-yl)-3-((4-methoxyphenyl)sulfonyl)-N-methylquinoline-6-carboxamide] yielded a Cell death of 40%.

Same assay, conditions: Mus musculus, Endothelial cell, 48 h, read-out: Cell death
In the case of `COc1ccc(S(=O)(=O)c2cnc3ccc(C(=O)N(C)C)cc3c2N2CCC(N3CCCCC3)CC2)cc1` [compound 331, 4-([1,4′-bipiperidin]-1′-yl)-3-((4-methoxyphenyl)sulfonyl)-N,N-dimethylquinoline-6-carboxamide], the cytotoxicity at 40 µM is reported as 10%.
`CCCCOc1ccc(S(=O)(=O)c2cnc3ccc([S+](C)[O-])cc3c2N2CCC(N3CCC(CO)CC3)CC2)cc1` (centres unmarked) [compound 240, (1′-(3-((4-butoxyphenyl)sulfonyl)-6-(methylsulfinyl)quinolin-4-yl)-[1,4′-bipiperidin]-4-yl)methanol] gave a cytotoxicity at 40 µM of 30%.
`CCCCCCCCCCCCOc1ccc(S(=O)(=O)c2cnc3ccc([S+](C)[O-])cc3c2N2CCC(N3CCC(N4CCN(CCO)CC4)CC3)CC2)cc1F` (centres unmarked) [compound 368, 2-(4-(1′-(3-((4-(dodecyloxy)-3-fluorophenyl)sulfonyl)-6-(methylsulfinyl)quinolin-4-yl)-[1,4′-bipiperidin]-4-yl)piperazin-1-yl)ethanol] showed a cytotoxicity at 20 µM of 20%.
In the case of `COc1ccc(S(=O)(=O)c2cnc3cc(OC)c(OC)cc3c2N2CCCN(C3CCS(=O)(=O)CC3)CC2)cc1` [compound 330, 4-(4-(6,7-dimethoxy-3-((4-methoxyphenyl)sulfonyl)quinolin-4-yl)-1,4-diazepan-1-yl)tetrahydro-2H-thiopyran 1,1-dioxide], the cytotoxicity at 40 µM is reported as 50%.
`CCCCCCCOc1ccc(S(=O)(=O)c2cnc3ccc(SC)cc3c2N2CCC(N3CCN(CCO)CC3)CC2)cc1` [compound 250, 2-(4-(1-(3-((4-(heptyloxy)phenyl)sulfonyl)-6-(methylthio)quinolin-4-yl)piperidin-4-yl)piperazin-1-yl)ethan-1-ol] showed a cytotoxicity at 20 µM of 90%.
Work on `CCOC(=O)c1ccc2ncc(S(=O)(=O)c3ccc(OC)cc3)c(N3CCCN(CCN4CCCCC4)CC3)c2c1` [compound 179, ethyl 3-((4-methoxyphenyl)sulfonyl)-4-(4-(2-(piperidin-1-yl)ethyl)-1,4-diazepan-1-yl)quinoline-6-carboxylate] yielded a cytotoxicity at 10 µM of 60%.
`CCCCCCCOc1ccc(S(=O)(=O)c2cnc3ccc(SC)cc3c2N2CCC(N3CCCN(C)CC3)CC2)cc1` [compound 249, 3-((4-(heptyloxy)phenyl)sulfonyl)-4-(4-(4-methyl-1,4-diazepan-1-yl)piperidin-1-yl)-6-(methylthio)quinoline] gave a cytotoxicity at 20 µM of 60%.
`CCCCCCCCCCCCOc1ccc(S(=O)(=O)c2cnc3ccc([S+](C)[O-])cc3c2N2CCC(N3CCC(N4CCN(C)CC4)CC3)CC2)cc1` (centres unmarked) [compound 341, 3-((4-(dodecyloxy)phenyl)sulfonyl)-4-(4-(4-methylpiperazin-1-yl)-[1,4′-bipiperidin]-1′-yl)-6-(methylsulfinyl)quinoline] was tested, and the cytotoxicity at 20 µM was 80%.
With `COc1ccc(S(=O)(=O)c2cnc3cc(OC)c(OC)cc3c2N2C[C@@H]3C[C@H]2CN3C)cc1` [compound 306, 6,7-dimethoxy-3-((4-methoxyphenyl)sulfonyl)-4-((1S,4S)-5-methyl-2,5-diazabicyclo[2.2.1]heptan-2-yl)quinoline] the cytotoxicity at 40 µM was 40%.
Work on `CCCCOc1ccc(S(=O)(=O)c2cnc3ccc(C(=O)OCC)cc3c2N2CCC(N3CCSCC3)CC2)cc1` [compound 217, ethyl 3-((4-butoxyphenyl)sulfonyl)-4-(4-thiomorpholinopiperidin-1-yl)quinoline-6-carboxylate] yielded a cytotoxicity at 40 µM of 30%.
`CCCCCCCCCCOc1ccc(S(=O)(=O)c2cnc3ccc([S+](C)[O-])cc3c2N2CCC(N3CCCC(O)C3)CC2)cc1` (centres unmarked) [compound 265, 1′-(3-((4-(decyloxy)phenyl)sulfonyl)-6-(methylsulfinyl)quinolin-4-yl)-[1,4′-bipiperidin]-3-ol] showed a cytotoxicity at 10 µM of 20%.
Work on `COc1ccc(S(=O)(=O)c2cnc3ccc(C(=O)N(C)C)cc3c2N2CCCN(CC(=O)N(C)C)CC2)cc1` [compound 333, 4-(4-(2-(dimethylamino)-2-oxoethyl)-1,4-diazepan-1-yl)-3-((4-methoxyphenyl)sulfonyl)-N,N-dimethylquinoline-6-carboxamide] yielded a cytotoxicity at 40 µM of 0%.
In the case of `CCCCCCCOc1ccc(S(=O)(=O)c2cnc3ccc(SC)cc3c2N2CCN(CCN3CCCCC3)CC2)cc1` [compound 281, 3-((4-(heptyloxy)phenyl)sulfonyl)-6-(methylthio)-4-(4-(2-(piperidin-1-yl)ethyl)piperazin-1-yl)quinoline], the cytotoxicity at 20 µM is reported as 50%.
Work on `COc1ccc(S(=O)(=O)c2cnc3ccc(SC)cc3c2NN2CCN(C)CC2)cc1` [compound 226, 3-((4-methoxyphenyl)sulfonyl)-N-(4-methylpiperazin-1-yl)-6-(methylthio)quinolin-4-amine] yielded a cytotoxicity at 40 µM of 10%.
`COc1ccc(C2CCN(c3c(S(=O)(=O)c4ccc(OC)cc4)cnc4cc(OC)c(OC)cc34)CC2)cc1` [compound 311, 6,7-dimethoxy-4-(4-(4-methoxyphenyl)piperidin-1-yl)-3-((4-methoxyphenyl)sulfonyl)quinoline] showed a cytotoxicity at 40 µM of 30%.
`CCCCCCCCCCCCOc1ccc(S(=O)(=O)c2cnc3ccc([S+](C)[O-])cc3c2N2CCC(N3CCC(N4CCCC(O)C4)CC3)CC2)cc1F` (centres unmarked) [compound 364, 1″-(3-((4-(dodecyloxy)-3-fluorophenyl)sulfonyl)-6-(methylsulfinyl)quinolin-4-yl)-[1,4′:1′,4″- terpiperidin]-3-ol] showed a cytotoxicity at 20 µM of 30%.
With `COc1ccc(S(=O)(=O)c2cnc3cc(OC)c(OC)cc3c2N2CCC(c3ccc(CN4CCCC4)cc3)CC2)cc1` [compound 312, 6,7-dimethoxy-3-((4-methoxyphenyl)sulfonyl)-4-(4-(4-(pyrrolidin-1-ylmethyl)phenyl)piperidin-1-yl)quinoline] the cytotoxicity at 40 µM was 100%.
`CCCCCCCCCCCCCCOc1ccc(S(=O)(=O)c2cnc3ccc([S+](C)[O-])cc3c2N2CCC(N3CCC(N4CCN(C)CC4)CC3)CC2)cc1F` (centres unmarked) [compound 371, 3-((3-fluoro-4-(tetradecyloxy)phenyl)sulfonyl)-4-(4-(4-methylpiperazin-1-yl)-[1,4′-bipiperidin]-1′-yl)-6-(methylsulfinyl)quinoline] showed a cytotoxicity at 20 µM of 30%.
